Patent US8835509B2, “Self emulsifying drug delivery system for a curcuminoid based composition” (Arbro Pharmaceuticals Ltd., priority 2010, dated 2014)
In brackets after ≈: the same amount, converted by molar mass. Read-outs that look alike come from different tables or passages of the source.

How the values were obtained:
[1] = rat intestine in vitro, cited from earlier work
[2] = rats, oral administration of 400 mg of curcumins, cited from earlier work
[3] = Solubility test of curcumin in oils, surfactants, milk, BSA and casein; assay type: physicochemical; details: thermodynamic from solid
Procedure: The solubility of curcumin in a number of oils such as citronella oil, castor oil, ethyl oleate, and palm rose oil, coconut oil, CAPRYOL™ 90 and a number of surfactants such as TWEEN® 80, CREMOPHOR® EL, PEG 200 and TRANSCUTOL® HP were determined in order to find out the appropriate oils and surfactants as compositions of SNEDDS. Solubility was also determined in milk, BSA and casein.
An excess amount of curcumin was added to 5 ml of oil or surfactant solutions. The resultant mixture was shaken reciprocally at 37° C. for 72 h, followed by centrifugation at 12000 rpm for 10 min. The supernatant was filtered through a membrane filter (0.45 μm) to remove the remaining insoluble curcumin. After the appropriate dilution with methanol, the drug concentration in the filtrate was quantified by HPLC.

## COc1cc(/C=C/C(=O)/C=C(O)/C=C/c2ccc(O)c(OC)c2)ccc1O [Curcumin, curcumin]
[1]; present as micelles
  absorption of curcumin: 56%
[1]; present in a free form
  absorption of curcumin: 47%
[2]; 15 minute to 24 hour after administration
  curcumin in portal blood: trace amount
[2]
  curcumin in heart blood: no curcumin was found
[3]; 37 °C, plasma or biological fluid, in Casein, read-out: Solubility of Curcumin in milk, BSA and Casein
  solubility at 72 h: 14 µg/mL (≈ 0.038 mM)
[3]; 37 °C, plasma or biological fluid, in Milk, read-out: Solubility of Curcumin in milk, BSA and Casein
  solubility at 72 h: 23800 µg/mL (≈ 64.5 mM)
[3]; Almond oil, oil or lipid, in Almond, 37° C., 72 h, read-out: Solubility of Curcumin in oils, Sol
  solubility at 72 h: 1250 µg/mL (≈ 3.39 mM)
[3]; Castor oil, oil or lipid, in Castor, 37° C., 72 h, read-out: Solubility of Curcumin in oils, Sol
  solubility at 72 h: 4420 µg/mL (≈ 12 mM)
[3]; Citronella oil, oil or lipid, in Citronella, 37° C., 72 h, read-out: Solubility of Curcumin in oils, Sol
  solubility at 72 h: 13200 µg/mL (≈ 35.8 mM)
[3]; Lavender oil, oil or lipid, in Lavender, 37° C., 72 h, read-out: Solubility of Curcumin in oils, Sol
  solubility at 72 h: 3440 µg/mL (≈ 9.35 mM)
[3]; Palm Rose oil, oil or lipid, in Palm Rose, 37° C., 72 h, read-out: Solubility of Curcumin in oils, Sol
  solubility at 72 h: 6030 µg/mL (≈ 16.4 mM)
[3]; aqueous with cosolvent or surfactant or cyclodextrin, in TWEEN® 60 (100% conc), 37° C., 72 h, read-out: Solubility of Curcumin in surfactants, Sol
  solubility at 72 h: 34 µg/mL (≈ 0.0923 mM)
[3]; aqueous with cosolvent or surfactant or cyclodextrin, in TWEEN® 80 (100% conc), 37° C., 72 h, read-out: Solubility of Curcumin in surfactants, Sol
  solubility at 72 h: 484 µg/mL (≈ 1.31 mM)
[3]; bovine, 37 °C, plasma or biological fluid, in BSA, read-out: Solubility of Curcumin in milk, BSA and Casein
  solubility at 72 h: 24 µg/mL (≈ 0.0651 mM)
[3]; coconut oil, oil or lipid, in Cocconut Oil, 37° C., 72 h, read-out: Solubility of Curcumin in oils, Sol
  solubility at 72 h: 1680 µg/mL (≈ 4.57 mM)
[3]; oil or lipid, in Arachis Oil, 37° C., 72 h, read-out: Solubility of Curcumin in oils, Sol
  solubility at 72 h: 160 µg/mL (≈ 0.434 mM)
[3]; oil or lipid, in CAPRYOL™ 90, 37° C., 72 h, read-out: Solubility of Curcumin in oils, Sol
  solubility at 72 h: 7580 µg/mL (≈ 20.6 mM)
[3]; oil or lipid, in Emu oil, 37° C., 72 h, read-out: Solubility of Curcumin in oils, Sol
  solubility at 72 h: 1580 µg/mL (≈ 4.3 mM)
[3]; oil or lipid, in Ethyl Oleate, 37° C., 72 h, read-out: Solubility of Curcumin in oils, Sol
  solubility at 72 h: 589 µg/mL (≈ 1.6 mM)
[3]; oil or lipid, in Glyc Mono ol, 37° C., 72 h, read-out: Solubility of Curcumin in oils, Sol
  solubility at 72 h: 154 µg/mL (≈ 0.418 mM)
[3]; oil or lipid, in IPM, 37° C., 72 h, read-out: Solubility of Curcumin in oils, Sol
  solubility at 72 h: 1130 µg/mL (≈ 3.06 mM)
[3]; oil or lipid, in Labrafilm F 1944, 37° C., 72 h, read-out: Solubility of Curcumin in oils, Sol
  solubility at 72 h: 2560 µg/mL (≈ 6.95 mM)
[3]; oil or lipid, in Labrafilm F2125, 37° C., 72 h, read-out: Solubility of Curcumin in oils, Sol
  solubility at 72 h: 3590 µg/mL (≈ 9.75 mM)
[3]; oil or lipid, in Lauroglycol, 37° C., 72 h, read-out: Solubility of Curcumin in oils, Sol
  solubility at 72 h: 2610 µg/mL (≈ 7.09 mM)
[3]; oil or lipid, in Light Paraffin, 37° C., 72 h, read-out: Solubility of Curcumin in oils, Sol
  solubility at 72 h: 7 µg/mL (≈ 0.019 mM)
[3]; oil or lipid, in Linseed Oil, 37° C., 72 h, read-out: Solubility of Curcumin in oils, Sol
  solubility at 72 h: 277 µg/mL (≈ 0.752 mM)
[3]; olive oil, oil or lipid, in Oilve, 37° C., 72 h, read-out: Solubility of Curcumin in oils, Sol
  solubility at 72 h: 501 µg/mL (≈ 1.36 mM)
[3]; organic solvent or mixture, in CREMOPHOR® EL (100% conc), 37° C., 72 h, read-out: Solubility of Curcumin in surfactants, Sol
  solubility at 72 h: 36600 µg/mL (≈ 99.4 mM)
[3]; organic solvent or mixture, in CREMOPHOR® RH (100% conc), 37° C., 72 h, read-out: Solubility of Curcumin in surfactants, Sol
  solubility at 72 h: 38700 µg/mL (≈ 105 mM)
[3]; organic solvent or mixture, in LABRASOL® (100% conc), 37° C., 72 h, read-out: Solubility of Curcumin in surfactants, Sol
  solubility at 72 h: 846 µg/mL (≈ 2.3 mM)
[3]; organic solvent or mixture, in PEG 200 (100% conc), 37° C., 72 h, read-out: Solubility of Curcumin in surfactants, Sol
  solubility at 72 h: 1040 µg/mL (≈ 2.84 mM)
[3]; organic solvent or mixture, in PEG 400 (100% conc), 37° C., 72 h, read-out: Solubility of Curcumin in surfactants, Sol
  solubility at 72 h: 512 µg/mL (≈ 1.39 mM)
[3]; organic solvent or mixture, in PEG 600 (100% conc), 37° C., 72 h, read-out: Solubility of Curcumin in surfactants, Sol
  solubility at 72 h: 123 µg/mL (≈ 0.334 mM)
[3]; organic solvent or mixture, in TRANSCUTOL® HP (100% conc), 37° C., 72 h, read-out: Solubility of Curcumin in surfactants, Sol
  solubility at 72 h: 96400 µg/mL (≈ 262 mM)
